Key:
SMN = assay: Western blot of SMN in SMA type I fibroblasts (3813 cells); assay type: cell-based, human; details: 48 hours, DMSO = 1
Method: Westerns blots were performed using the methods of Mattis et al., Hum Genet 120:589-601(2006)). SMA type I fibroblasts (3813 cells; Coriell Cell Repositories) were treated with compounds for 48 hours. Monoclonal anti-SMN antibody 4B7 (Wolstencroft et al., Hum Mol Genet 14:1199-1210 (2005)) was used to identify SMN. Actin was used as an internal normalization standard and detected with an anti-actin polyclonal rabbit antibody (Sigma-Aldrich). Tobramycin was used for the positive control compound treatment. DMSO is the untreated negative control. Values are presented as the ratio of the signals obtained for SMN and Actin.

[1] = system: SMN2-linked luciferase-reporter gene construct; assay: SMN splice reporter assay (SMN2-linked luciferase reporter, Example 10); assay type: cell-based; details: for EC50: SMN2-linked luciferase reporter; for EC50 / maximal fold induction: average; for maximal fold induction: maximum fold increase of reporter signal, read-out: SMN Splice Reporter Assay (Example 10) Avg MaxFold Increase
Procedure, shortened: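 Cervical carcinoma cells stably carrying an SMN2–luciferase splice reporter, in which luciferase is in frame only when SMN2 exon 7 is included, were treated with compound. Luciferase activity was read and expressed as fold increase over untreated transformed cells.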

[2] = system: SMN-containing gems in fibroblast cells from a type 1 SMA patient (3813 cells); assay: Gem count by immunohistochemistry in type 1 SMA patient fibroblasts (3813 cells); assay type: cell-based, human; details: 48 hours
Text: SMN protein can be found in punctate nuclear particles called “gems” (Liu and Dreyfuss, EMBO J. 15(14): 3555-3565 (1996)). In fibroblast cells derived from SMA patients, the number of gems corresponds to disease severity as follows: severe type 1 patients have approximately 5 gems per 100 nuclei; mild type 3 patients have 20-50 gems per 100 nuclei; normal individuals have approximately 100-150 gems per 100 nuclei (Coovert et al., Hum Mol Genet 6(8): 1205-1214 (1997), Young et al., Exp Cell Res 265(2): 252-261 (2001)).
Following these methods, fibroblast cells from a type 1 SMA patient (3813 cells, Coriell Cell Repositories) were treated for 48 hours with the compounds indicated in Table 2 (reference number—structure correlation is provided in Table 1). The cells were then fixed and incubated with a monoclonal antibody against SMN (4B7, Wolstencroft et al., Hum Mol Genet 14:1199-1210 (2005)). A FITC-conjugated anti-mouse secondary antibody was used to visualize the labeled gems.

SMN protein = details: cited from earlier work
[3] = system: luciferase reporter containing the UAG stop codon; assay: Translational read-through luciferase reporter assay, UAG stop codon; assay type: cell-based; details: read-out: MaxFold Increase
Text: This assay is described in detail in WO 01/44516 A2. This is a cell-based luciferase reporter assay designed to detect translational read-through via insertion of a translational stop codon within the luciferase coding sequence. In the presence of compounds that promote read-through of translational stop codons, active luciferase is produced and detected via chemiluminescence. We have shown that indoprofen analogs are active in two versions of this assay—one containing a UGA stop codon and one containing a UAG stop codon. The data in the table is from the luciferase reporter containing the UAG stop codon. This is the first stop codon downstream of the improper splice junction between exons 6 and 8 in the human SMN2 transcript.

SMA model mouse fetuses = details: administered in utero; cited from earlier work

With `COc1ccc2c(c1)C(=O)N(c1ccc(C(C)C)cc1)C2` [ALB-115069] the “SMN:Actin Ratio” value (SMN; 0.1 uM) was 4.3, the “SMN:Actin Ratio” value (SMN; 1 uM) was 5.7 and the EC50 [1] was 81 nM. For the same compound, the maximal fold induction [1] was 1.5 and the “Number of gems per 100 nuclei, Treated Cells” value ([2]; 1 μM) was 45.25 gems per 100 nuclei.
With `CCCc1ccc2c(c1)C(=O)N(c1ccc(C(C)C(=O)O)cc1)C2` (stereo not drawn) [Example 2, 2-(4-(1-oxo-6-propylisoindolin-2-yl)phenyl)propanoic acid] the melting point was 175 to 177 °C.
For `CC(C(=O)O)c1ccc(N2Cc3ccccc3C2=O)cc1` (stereo not drawn) [Indoprofen], the “production of SMN from the endogenous SMN2 gene” value (SMN protein; SMA patient fibroblasts) is given as “increase in production of SMN”, the “level of expression of SMN protein” value (SMN protein; cultured cells, Lunn et al. 2004) is given as “increases the level of expression of SMN protein” and the maximal fold induction [3] is given as 2.3. For the same compound, the “survival of SMA model mouse fetuses” value (SMA model mouse fetuses) was “increase survival” and the “luciferase activity in SMN splice reporter assay” value ([1]; cervical carcinoma cell lines with SMN2-luciferase reporter) was “increases luciferase activity”.
`CC(C)c1ccc(N2Cc3ccc([N+](=O)[O-])cc3C2=O)cc1` [Example 6, 2-(4-isopropylphenyl)-6-nitroisoindolin-1-one] gave a melting point of 225 to 227 °C.
With `NC[C@H]1O[C@H](O[C@H]2[C@H](O)[C@@H](O[C@H]3O[C@H](CO)[C@@H](O)[C@H](N)[C@H]3O)[C@H](N)C[C@@H]2N)[C@H](N)C[C@@H]1O` [Tobramycin, reference compound] the “SMN:Actin Ratio” value (SMN; 320 uM, positive control) was 1.5.
With `COCC(C)c1ccc(N2Cc3ccc(OC)cc3C2=O)cc1` (stereo not drawn) [Example 4, 6-methoxy-2-(4-(1-methoxypropan-2-yl)phenyl)isoindolin-1-one] the melting point was 116 to 118 °C.
For `CC(C)c1ccc(N2Cc3ccc(Cl)cc3C2=O)cc1` [Example 5, 6-chloro-2-(4-isopropylphenyl)isoindolin-1-one], the melting point was 206 to 209 °C.
With `CCCc1ccc2c(c1)C(=O)N(c1ccc(C(C)C(=O)O)cc1)C2` (stereo not drawn) [ALB-113310] the maximal fold induction [3] was 3.7, the “SMN:Actin Ratio” value (SMN; 0.1 uM) was 4.8 and the “SMN:Actin Ratio” value (SMN; 1 uM) was 6.2. The EC50 [1] was 49 nM, the maximal fold induction [1] was 2.1 and the “Number of gems per 100 nuclei, Treated Cells” value ([2]; 3 μM) was 53.5 gems per 100 nuclei.

— patent publication US8110681B2, “Compounds for the treatment of spinal muscular atrophy and other uses” (The United States of America as represented by the …, priority 2006, dated 2012)
